Where a name gives a salt, the structure may show the parent alone.
system: Acinetobacter baumannii ATCC 17961; assay: Antimicrobial susceptibility testing: 90% growth inhibitory concentration (IC90) determination; type: cell-based; details: ATCC17961, Acinetobacter baumannii ATCC 17961, Iso-Sensitest broth, read-out: ATCC 17961 IC90
In short: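 Growth was followed kinetically by OD600 at 20-min intervals for 16 h at 35±2 °C, with ~5×10^5 CFU/ml in Iso-Sensitest broth. Compounds were tested as twofold dilutions (e.g. 50–0.097 μM final). The concentration giving 90% inhibition of log-phase growth was reported.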

`Cn1c(-c2cn(C3CC3)nc2C(F)(F)F)cnc1C(=O)Nc1ccc(C(=O)N2CCN(C(=O)[C@@H]3C[C@@H](O)CN3)CC2)c(Cl)c1` [Example 321, N-(3-chloro-4-(4-((2S,4R)-4-hydroxypyrrolidine-2-carbonyl)piperazine-1-carbonyl)phenyl)-5-(1-cyclopropyl-3-(trifluoromethyl)-1H-pyrazol-4-yl)-1-methyl-1H-imidazole-2-carboxamide hydrochloride] and `Cn1c(-c2cn(C3CC3)nc2C(F)(F)F)cnc1C(=O)Nc1ccc(C(=O)N2CCN(C(=O)[C@H]3CCN3)CC2)c(Cl)c1` [Example 348, (R)-N-(4-(4-(azetidine-2-carbonyl)piperazine-1-carbonyl)-3-chlorophenyl)-5-(1-cyclopropyl-3-(trifluoromethyl)-1H-pyrazol-4-yl)-1-methyl-1H-imidazole-2-carboxamide hydrochloride] are within 1.5-fold of each other in IC90: 403 nM for the first, 447 nM for the second.

`Cn1c(-c2cn(C3CC3)nc2C(F)(F)F)cnc1C(=O)Nc1ccc(C(=O)N[C@H]2[C@@H]3CN(C(=O)N4CC[C@@H](N)C4)C[C@@H]32)c(Cl)c1` [Example 322, N-(4-((exo-3-((R)-3-aminopyrrolidine-1-carbonyl)-3-azabicyclo[3.1.0]hexan-6-yl)carbamoyl)-3-chlorophenyl)-5-(1-cyclopropyl-3-(trifluoromethyl)-1H-pyrazol-4-yl)-1-methyl-1H-imidazole-2-carboxamide formate] and `Cn1c(-c2cn(C3CC3)nc2C(F)(F)F)cnc1C(=O)Nc1ccc(C(=O)N[C@H]2[C@@H]3CN(C(=O)N[C@@H]4CCC[C@@H]4N)C[C@@H]32)c(Cl)c1` [Example 334, exo-N-((1R,2S)-2-aminocyclopentyl)-6-(2-chloro-4-(5-(1-cyclopropyl-3-(trifluoromethyl)-1H-pyrazol-4-yl)-1-methyl-1H-imidazole-2-carboxamido)benzamido)-3-azabicyclo[3.1.0]hexane-3-carboxamide formate] are within 1.5-fold of each other in IC90: 407 nM for the first, 423 nM for the second.

`Cn1c(-c2cn(C3CC3)nc2C(F)(F)F)cnc1C(=O)Nc1ccc(C(=O)N2CCC(C3CCNCC3)CC2)c(Cl)c1` [Example 323, N-(4-([4,4′-bipiperidine]-1-carbonyl)-3-chlorophenyl)-5-(1-cyclopropyl-3-(trifluoromethyl)-1H-pyrazol-4-yl)-1-methyl-1H-imidazole-2-carboxamide formate] and `Cn1c(-c2cn(C3CC3)nc2C(F)(F)F)cnc1C(=O)Nc1ccc(C(=O)N2CCN(S(=O)(=O)N3CCNCC3)CC2)c(Cl)c1` [Example 338, N-(3-chloro-4-(4-(piperazin-1-ylsulfonyl)piperazine-1-carbonyl)phenyl)-5-(1-cyclopropyl-3-(trifluoromethyl)-1H-pyrazol-4-yl)-1-methyl-1H-imidazole-2-carboxamide formate] are within 1.5-fold of each other in IC90: 407 nM for the first, 427 nM for the second.

`C[C@H](N)C(=O)N[C@H]1CC[C@@H](NC(=O)c2ccc(NC(=O)c3ncc(-c4cn(CC#N)nc4C(F)(F)F)n3C)cc2Cl)CC1` [Example 324, N-[4-[[4-[[(2S)-2-aminopropanoyl]amino]cyclo-hexyl]carbamoyl]-3-chlorophenyl]-5-[1-(cyanomethyl)-3-(trifluoromethyl)pyrazol-4-yl]-1-methylimidazole-2-carboxamide;2,2,2-trifluoroacetic acid] and `Cn1c(-c2cn(CC#N)nc2C(F)(F)F)cnc1C(=O)Nc1ccc(C(=O)N[C@H]2C[C@@H](NC(=O)N3CCCC(N)C3)C2)c(Cl)c1` (stereo partly shown) [Example 326, 3-amino-N-[3-[[2-chloro-4-[[5-[1-(cyanomethyl)-3-(trifluoromethyl)pyrazol-4-yl]-1-methyl-imidazole-2-carbonyl]amino]benzoyl]amino]cyclobutyl]piperidine-1-carboxamide; formic acid] are within 1.5-fold of each other in IC90: 408 nM for the first, 411 nM for the second.

`CCn1cc(-c2cnc(C(=O)Nc3ccc(C(=O)N4CCN(C(=O)N[C@H]5C[C@@H](N)C5)CC4)c(Br)c3)n2C)c(C(F)(F)F)n1` [Example 325, rac-N-((is,3s)-3-aminocyclobutyl)-4-(2-bromo-4-(5-(1-ethyl-3-(trifluoromethyl)-1H-pyrazol-4-yl)-1-methyl-1H-imidazole-2-carboxamido)benzoyl)piperazine-1-carboxamidee formate] and `CCc1cc(NC(=O)c2ncc(-c3cn(CC#N)nc3C(F)(F)F)n2C)ccc1C(=O)N1CCN(C(=O)[C@H]2C[C@H](N)C2)CC1` [Example 340, N-[4-[4-(3-aminocyclobutanecarbonyl)piper-azine-1-carbonyl]-3-ethyl-phenyl]-5-[1-(cyanomethyl)-3-(trifluoromethyl)pyrazol-4-yl]-1-methyl-imidazole-2-carboxamide; formic acid] are within 1.5-fold of each other in IC90: 411 nM for the first, 428 nM for the second.

`Cn1c(-c2cn(CC3CCC3)nc2C(F)(F)F)cnc1C(=O)Nc1ccc(C(=O)N2CCN(C(=O)[C@H]3CC[C@@H](N)C3)CC2)c(Cl)c1` [Example 327, N-(4-(4-((1S,3R)-3-aminocyclopentane-1-carbonyl)piperazine-1-carbonyl)-3-chlorophenyl)-5-(1-(cyclobutylmethyl)-3-(trifluoromethyl)-1H-pyrazol-4-yl)-1-methyl-1H-imidazole-2-carboxamide hydrochloride] and `Cn1c(-c2cn(CC3CCC3)nc2C(F)(F)F)cnc1C(=O)Nc1ccc(C(=O)N2CCN(C(=O)[C@@H]3C[C@@H](O)CN3)CC2)c(Cl)c1` [Example 335, N-(3-chloro-4-(4-((2S,4R)-4-hydroxypyrrolidine-2-carbonyl)piperazine-1-carbonyl)phenyl)-5-(1-(cyclobutylmethyl)-3-(trifluoromethyl)-1H-pyrazol-4-yl)-1-methyl-1H-imidazole-2-carboxamide bis(2,2,2-trifluoroacetate)] are within 1.5-fold of each other in IC90: 414 nM for the first, 426 nM for the second.

`Cn1c(-c2cn(CC#N)nc2C(F)(F)F)cnc1C(=O)Nc1ccc(C(=O)N[C@H]2C[C@@H](NC(=O)N3CC4CC3CN4)C2)c(Cl)c1` (stereo partly shown) [Example 328, N-[3-[[2-chloro-4-[[5-[1-(cyanomethyl)-3-(trifluoromethyl)pyrazol-4-yl]-1-methyl-imidazole-2-carbonyl]amino]benzoyl]amino]cyclobutyl]-2,5-diazabicyclo[2.2.1]heptane-2-carboxamide; formic acid] and `Cn1c(-c2cn(CC#N)nc2C(F)(F)F)cnc1C(=O)Nc1ccc(C(=O)NCCCCN)c(Cl)c1` [Example 345, N-(4-((4-aminobutyl)carbamoyl)-3-chlorophenyl)-5-(1-(cyanomethyl)-3-(trifluoromethyl)-1H-pyrazol-4-yl)-1-methyl-1H-imidazole-2-carboxamide tris(2,2,2-trifluoroacetate)] are within 1.5-fold of each other in IC90: 420 nM for the first, 444 nM for the second.

`CCn1cc(-c2cnc(C(=O)Nc3ccc(C(=O)N4CCN(C(=O)CN)CC4)c(Cl)c3)n2C)c(C(F)(F)F)n1` [Example 330, N-[4-[4-(2-aminoacetyl)piperazine-1-carbonyl]-3-chlorophenyl]-5-[1-ethyl-3-(trifluoromethyl)pyrazol-4-yl]-1-methylimidazole-2-carboxamide;hydrochloride] and `Cn1c(-c2cn(CC#N)nc2C(F)(F)F)cnc1C(=O)Nc1ccc(C(=O)N2CCN(C(=O)NCC3(O)CNC3)CC2)c(Cl)c1` [Example 343, 4-[2-chloro-4-[[5-[1-(cyanomethyl)-3-(trifluoromethyl)pyrazol-4-yl]-1-methyl-imidazole-2-carbonyl]amino]benzoyl]-N-[(3-hydroxyazetidin-3-yl)methyl]piperazine-1-carboxamide; formic acid] are within 1.5-fold of each other in IC90: 421 nM for the first, 442 nM for the second.

`Cn1c(-c2cn(CCOC(F)(F)F)nc2C(F)(F)F)cnc1C(=O)Nc1ccc(C(=O)N2CCN(C(=O)C3CCNCC3)CC2)c(Cl)c1` [Example 332, N-(3-chloro-4-(4-(piperidine-4-carbonyl)piperazine-1-carbonyl)phenyl)-1-methyl-5-(1-(2-(trifluoromethoxy)ethyl)-3-(trifluoromethyl)-1H-pyrazol-4-yl)-1H-imidazole-2-carboxamide hydrochloride] and `Cn1c(-c2cn(CC(F)F)nc2C(F)(F)F)cnc1C(=O)Nc1ccc(C(=O)N2CCNCC2)c(Cl)c1` [Example 336, N-(3-chloro-4-(piperazine-1-carbonyl)phenyl)-5-(1-(2,2-difluoroethyl)-3-(trifluoromethyl)-1H-pyrazol-4-yl)-1-methyl-1H-imidazole-2-carboxamide formate] are within 1.5-fold of each other in IC90: 422 nM for the first, 426 nM for the second.

`Cn1c(-c2cn(C3CC3)nc2C(F)(F)F)cnc1C(=O)Nc1ccc(C(=O)N2CCC(C(=O)N[C@H]3C[C@H](N)C3)CC2)c(Cl)c1` [Example 339, N-(3-aminocyclobutyl)-1-[2-chloro-4-[[5-[1-cyclopropyl-3-(trifluoromethyl)pyrazol-4-yl]-1-methyl-imidazole-2-carbonyl]amino]benzoyl]piperi-dine-4-carboxamide; formic acid] and `Cn1c(-c2cn(C3CC3(F)F)nc2C(F)(F)F)cnc1C(=O)Nc1ccc(C(=O)NC2CNCC2O)c(Cl)c1` (stereo not shown) [Example 341, N-(3-chloro-4-((4-hydroxypyrrolidin-3-yl)carbamoyl)phenyl)-5-(1-(2,2-difluorocyclopropyl)-3-(trifluoromethyl)-1H-pyrazol-4-yl)-1-methyl-1H-imidazole-2-carboxamide formate] are within 1.5-fold of each other in IC90: 427 nM for the first, 430 nM for the second.

`C#CCn1cc(-c2cnc(C(=O)Nc3ccc(S(C)(=O)=NCCCN)c(C)c3)n2C)c(C(F)(F)F)n1` (stereo not shown) [Example 342, N-[4-[N-(3-aminopropyl)-S-methyl-sulfonimidoyl]-3-methyl-phenyl]-1-methyl-5-[1-prop-2-ynyl-3-(trifluoromethyl)pyrazol-4-yl]imidazole-2-carboxamide; formic acid] and `Cn1c(-c2cn(C3CC3(F)F)nc2C(F)(F)F)cnc1C(=O)Nc1ccc(C(=O)NC2(C)CCNCC2)c(Cl)c1` (stereo not shown) [Example 344, N-(3-chloro-4-((4-methylpiperidin-4-yl)carbamoyl)phenyl)-5-(1-(2,2-difluorocyclopropyl)-3-(trifluoromethyl)-1H-pyrazol-4-yl)-1-methyl-1H-imidazole-2-carboxamide formate] are within 1.5-fold of each other in IC90: 442 nM for the first, 443 nM for the second.

Source: patent US11390604B2 (Hoffmann-La Roche Inc., priority 2019, dated 2022)
